First: CC(=O)CCc1ccc2c(c1)COc1ccc(OCc3ccc4cc(F)c(Cl)cc4n3)cc1C2SCCC(=O)O (stereo not drawn)
Second: CCC1CC(=O)N(CCc2ccc(NC(=O)c3cnccn3)cc2)N=C1c1ccc(OC)c(OC)c1 (stereo not drawn)
The melting point of the first is lower: 115 to 118 °C for the first, 202 °C for the second.

First: COc1cc(CCNC(=O)C(F)(F)F)ccc1[N+](=O)[O-]
Second: CC(=O)SCC(C(=O)NCCc1ccncc1)C(F)(F)F (stereo not drawn)
The melting point of the first is higher: 104 °C for the first, 87 to 89 °C for the second.

First: CC(C(=O)O)c1cccc(N)c1 (stereo not drawn)
Second: COC(=O)c1c[nH]c2ccc(N)cc12
The melting point of the first is lower: 98 to 100 °C for the first, 217 to 219 °C for the second.

First: CC(=O)SCCS(=O)(=O)N1CCC[C@H]1C(=O)OC(C)(C)C
Second: CC(C)(C)OC(=O)C[C@H](NC(=O)c1ccc(CCC(=O)NC2=NCCCN2)s1)c1ccc2c(c1)OCO2
The melting point of the first is lower: 46 to 50 °C for the first, 130 °C for the second.

First: CC(=O)c1cc(Cl)ccc1Nc1ccc(O)cc1
Second: O=C1COc2cc(Sc3ccc(O)cc3)ccc2N1
The melting point of the first is higher: 158 to 161 °C for the first, 156 to 157 °C for the second.

First: CCOC(=O)C(=O)c1csc(NC(=O)Nc2c(C)cccc2C)n1
Second: COC(=O)c1csc(-c2ccc([N+](=O)[O-])cc2)n1
The melting point of the first is lower: 172 to 174 °C for the first, 224 to 227 °C for the second.

First: CC(=O)NC(C)CCC1CCN(c2nc3ccc(OCC4CC4)cc3o2)CC1 (stereo not drawn)
Second: COc1ccc2c(c1)CCC(CNC(C)=O)C2 (stereo not drawn)
The melting point of the first is higher: 131 to 132 °C for the first, 96 to 97 °C for the second.

Compared with `CN(CCCNc1ncc(Cc2ccccc2)c(=O)[nH]1)c1ccccn1`, `N#CCc1cc(=O)c(OCc2ccccc2)cn1Cc1ccccc1` is higher in melting point: 75 to 85 °C for the first, 175 to 180 °C for the second.

First: COc1ccccc1Sc1c(O)c2c(Cl)cc(Cl)cc2[nH]c1=O
Second: COc1ccc2[nH]c3c([N+](=O)[O-])ccc(Cl)c3c(=O)c2c1
The melting point of the first is higher: 269 to 270 °C for the first, 262 to 264 °C for the second.

First: CCc1c(C(=O)NNC(=O)C(O)c2cc(F)cc(F)c2)ccc(O)c1C (stereo not drawn)
Second: CCOC(=O)COc1ccc(C=NCCN=Cc2ccc(OCC(=O)OCC)cc2O)c(O)c1
The melting point of the first is higher: 187 °C for the first, 104 to 106 °C for the second.

First: O=C(c1ccccc1)N1CCc2[nH]c3cccc(CCCO)c3c2CC1
Second: CC(=O)N(CCCC(=O)O)c1ccccc1-c1ccccc1
The melting point of the first is higher: 144 to 147 °C for the first, 124 to 125 °C for the second.

First: Clc1ccc(Oc2ccccc2Oc2ncc(Cl)cn2)nc1
Second: c1ccc(OCc2ccc3ccccc3n2)c(OCCCc2nnn[nH]2)c1
The melting point of the first is lower: 108 to 111 °C for the first, 137 to 140 °C for the second.

First: CN(CCc1ccc(O)cc1)[C@H]1CC[C@H](c2ccccc2)CC1
Second: COc1ccc(CNC(=O)c2sc3ccccc3c2Br)cc1
The melting point of the first is lower: 97 to 105 °C for the first, 123 to 124 °C for the second.

Compared with `CC(=O)c1noc2ccccc12`, `CC(=CS(N)(=O)=O)c1ccccc1` is higher in melting point: 30 to 32 °C for the first, 101 to 102 °C for the second.

First: O=c1[nH]c2cc(C(F)(F)F)ccc2c(-c2cc(Cl)ccc2O)c1NS(=O)(=O)C(F)(F)F
Second: OCc1ncc2n1-c1ccc(Cl)cc1C(c1ccccc1F)=NC2
The melting point of the first is higher: 267 to 270 °C for the first, 258 to 260 °C for the second.

Compared with `Cn1c(=O)c2[nH]c(C3CCSC3)nc2n(C)c1=O` (stereo not drawn), `CC(C)NC(C)CCc1nc(Cn2cnc3c2c(=O)n(C)c(=O)n3C)no1` (stereo not drawn) is lower in melting point: 217 to 219 °C for the first, 55 to 61 °C for the second.

First: C=CC(=O)NC(=O)NCCS(=O)(=O)C=C
Second: CN1C(CO)=Cc2cc(S(N)(=O)=O)sc2S1(=O)=O
The melting point of the first is higher: 177 to 179 °C for the first, 144 to 146 °C for the second.

Compared with `O=C(Oc1ccccc1)c1ccc(NS(=O)(=O)c2ccccc2)cc1Cl`, `COC1(c2ccccc2)OC=C(c2ccc(C(=O)O)cc2)C1=O` (stereo not drawn) is higher in melting point: 130 to 140 °C for the first, 212 to 214 °C for the second.

First: O=C(NCCc1ccc(F)cc1)OCC1CCCCC1
Second: N#Cc1ccccc1NC(=O)C1CCCCC1
The melting point of the first is lower: 44 to 45 °C for the first, 135 to 137 °C for the second.

First: COC(=O)[C@H](Cc1ccccc1)NC(=O)[C@H](Cc1ccccc1)NC(=O)c1cnccn1
Second: COC(Nc1ccccc1)(OC)C1(Br)C=CN=C(C(=O)c2ccccc2)C1 (stereo not drawn)
The melting point of the first is lower: 111 to 113 °C for the first, 189 to 190 °C for the second.

First: Oc1ccc2c(c1)COc1c-2cc2ccc(O)cc2c1-c1ccoc1
Second: O=C(NCc1cccs1)c1ccc(CN2C(=O)C3(COc4cc5c(cc43)CCO5)c3ccccc32)cc1 (stereo not drawn)
The melting point of the first is higher: 216 to 218 °C for the first, 167 to 168 °C for the second.

Compared with `CC1(C)CCc2c(-c3ccoc3)nc3sc4c(NCCc5c[nH]cn5)ncnc4c3c2C1`, `COc1cc(Nc2nccc(-c3ccc(N4CCNCC4)nc3)n2)cc(OC)c1` is lower in melting point: 265 to 267 °C for the first, 176 to 177 °C for the second.

First: CCCOc1ccc(C(=O)N/C(=C\c2ccc(OC(F)(F)F)cc2)C(=O)NCCO)cc1
Second: O=C(O)c1ccc(-c2cn(-c3ccc(OC(F)(F)F)cc3)cn2)cc1
The melting point of the first is lower: 185 to 186 °C for the first, 230 °C for the second.

First: CCOc1ccc(-c2nn(C(C)c3oc4ccccc4c(=O)c3-c3cccc(F)c3)c3ncnc(N)c23)cc1 (stereo not drawn)
Second: CCOC(=O)Cc1nc(-c2ccc(Cl)cc2)oc1Sc1ccccc1
The melting point of the first is higher: 229 to 232 °C for the first, 109 to 110 °C for the second.

First: CS(=O)(=O)N1CCC(C(CS(=O)(=O)c2ccc(Oc3ccc(OC(F)(F)F)cc3)cc2)N(O)C=O)CC1 (stereo not drawn)
Second: CC(C)(COC(=O)c1ccc(C(=O)O)cc1)COC(=O)c1ccc(C(=O)O)cc1
The melting point of the first is lower: 178 to 179 °C for the first, 287 to 288 °C for the second.

First: CC1CC(=O)NN=C1c1ccc(NCC(C)(C)N)cc1 (stereo not drawn)
Second: CC(C)(C)OC(=O)NCc1ccc(-n2c(-c3cccnc3N)nc3cc(Br)cnc32)cc1
The melting point of the first is higher: 184 to 185 °C for the first, 129 to 131 °C for the second.

Compared with `Cn1nc(-c2cc(CO)c(Cl)cc2F)c(Cl)c1C(F)(F)F`, `O=C(O)Cc1nn(C/C=C/c2cccc(C(F)(F)F)c2F)c(=O)c2ccccc12` is higher in melting point: 90 °C for the first, 170 to 172 °C for the second.

Compared with `C=C(CC(Cl)(Cl)Cl)c1nc(Cl)ccc1Cl`, `C=C(C)n1c(=O)n(CCCCl)c2ccccc21` is higher in melting point: 71 to 74 °C for the first, 115 °C for the second.

First: COc1ccc2ccc3c(c2c1)C(CC#N)CCO3 (stereo not drawn)
Second: COc1ccc(C2CC(=O)c3c(C)coc3C2)cc1 (stereo not drawn)
The melting point of the first is higher: 122 to 123 °C for the first, 82 to 83 °C for the second.

First: Nc1csc2ccc([N+](=O)[O-])cc12
Second: O=[N+]([O-])c1ccc2c(c1)NP(=O)(N(CCCl)CCCl)OC2 (stereo not drawn)
The melting point of the first is higher: 155 to 158 °C for the first, 138 to 142 °C for the second.

First: O=C(O)CO[C@@H]1COc2nc([N+](=O)[O-])cn2C1
Second: CC(C)CNC(=O)C=Cc1ccc(OCc2ccccc2)c([N+](=O)[O-])c1
The melting point of the first is higher: 178 to 179 °C for the first, 166 to 167 °C for the second.

First: CCCCCCCCCCCCCCCCCCOc1cc(N(CC(=O)O)CC(=O)O)cc(S(=O)CC(=O)O)c1 (stereo not drawn)
Second: CCCCCCCCCCCCCCc1ccc(OCC2COC(C)(C)O2)c(CC)c1 (stereo not drawn)
The melting point of the first is higher: 138 to 140 °C for the first, 34 to 38 °C for the second.

First: Cc1cc(SC2=C(O)C[C@@](CCc3cccc(O)c3)(C3CCCC3)OC2=O)c(C(C)(C)C)cc1CO
Second: Cc1c(C)c(N2CCN(Cc3ccccc3)CC2)c(C)c2c1OC(C)(C)C2c1ccc(F)nc1 (stereo not drawn)
The melting point of the first is higher: 128 to 132 °C for the first, 76 to 79 °C for the second.

Compared with `O=C(NCc1ccc(Cl)cc1)c1cnc2ccc(C#CCO)cn2c1=O`, `O=C(CC(=O)c1cccn1Cc1ccc(F)cc1)c1ccncn1` is lower in melting point: 179 to 181 °C for the first, 128 to 129 °C for the second.

First: Cn1nc(O)c(C(F)F)c1Cl
Second: CCn1nc(C)c2nc(C)nc(O)c21
The melting point of the first is lower: 122 to 123 °C for the first, 220 to 223 °C for the second.

First: CON=Cc1ccc2c(c1)ncn2-c1cccc(-c2ncccn2)c1
Second: C[C@@H](n1cnc2cc(C#N)ccc2c1=O)[C@](O)(Cn1cncn1)c1ccc(F)cc1F
The melting point of the first is lower: 158 to 159 °C for the first, 168 to 169 °C for the second.

First: CCNc1cc(Oc2ccc(N)cc2)ncn1
Second: Nc1ccc(-c2ccncc2)nn1
The melting point of the first is lower: 143 to 145 °C for the first, 199 to 201 °C for the second.

First: O=C(O)c1cn(C2CC2)c2c(F)c(N3CCCC(n4cncn4)C3)c(F)cc2c1=O (stereo not drawn)
Second: COCS(=O)(=O)[C@H](C)[C@](O)(Cn1cncn1)c1ccc(F)cc1F
The melting point of the first is higher: 217 °C for the first, 102 to 103 °C for the second.

Compared with `CC(=O)N1CCC(C(=O)N(CCCN2CC3CN(C(=O)c4c(C)ccnc4C)CC3C2)c2ccc(C)c(Cl)c2)CC1` (stereo not drawn), `CCN(CC)C(=O)n1ccc(S(=O)(=O)c2ccc(Br)c(C)c2)n1` is lower in melting point: 81.5 to 83.6 °C for the first, 75 to 77 °C for the second.

First: C#Cc1ccc(C(=O)NCC(N)C(c2ccccc2)(c2ccccc2)c2ccccc2)cc1 (stereo not drawn)
Second: O=C(NCCCCN1CCN(C(c2ccccc2)c2ccccc2)CC1)c1cnc2cccc(O)c2c1O
The melting point of the first is lower: 50 to 51 °C for the first, 215 to 218 °C for the second.

Compared with `C[C@H](N)C(=O)Nn1cccc1`, `CCOC(=O)CCOc1cccc2c1CCC2=O` is higher in melting point: 63 to 66 °C for the first, 90 to 92 °C for the second.

First: O=c1cnc2c(NC(CO)CO)nc(SCc3cccc(C(F)(F)F)c3F)nc2[nH]1
Second: OCC(O)COCc1nnc2n1-c1ccc(Cl)cc1C(c1ccccc1)=NC2 (stereo not drawn)
The melting point of the first is higher: 244 to 245 °C for the first, 130 to 134 °C for the second.

First: [N-]=[N+]=NC1CC(n2cc(I)c(=O)[nH]c2=O)OC1CO (stereo not drawn)
Second: O=c1c2cnc(Cl)cc2[nH]c2ccnn12
The melting point of the first is lower: 126 to 130 °C for the first, greater than 300 °C for the second.

First: CCCCCCCN(CC1(c2ccccc2)CCCC1)C(=O)Nc1ccc(F)cc1F
Second: CCCCCCCN(CC)C(=O)CCCc1ccc(NS(C)(=O)=O)cc1
The melting point of the first is higher: 88 to 90 °C for the first, 54 to 55 °C for the second.

First: CS(=O)C=C1C(C)(C)CCC1(C)C (stereo not drawn)
Second: CSC(=S)Oc1cnc(C)c2c1COC(C)(C)O2
The melting point of the first is lower: 74.7 °C for the first, 88 to 90 °C for the second.

Compared with `O=C1NCc2ccsc21`, `CC(O)c1sccc1S(=O)(=O)N(C)c1cccc2cc(-c3nccs3)[nH]c12` (stereo not drawn) is higher in melting point: 104 to 105 °C for the first, 193 °C for the second.

Compared with `COc1cc(OC)nc(Sc2[nH]nc(C)c2[N+](=O)[O-])n1`, `COc1ccc(COCc2nc(C(C)C)c(Sc3cc(Cl)cc(Cl)c3)[nH]2)cc1` is lower in melting point: 175 to 176 °C for the first, 96 to 97 °C for the second.

Compared with `Cc1ccc(S(=O)(=O)NCCNC2(c3ccc(Cl)cc3)OC(=O)c3ccccc32)cc1` (stereo not drawn), `CCOC(=O)N(c1ccc(Cl)cc1)c1ccccc1N=NC(NC(=O)CCl)(C(=O)OCC)C(=O)OCC` is lower in melting point: 177 to 179 °C for the first, 80 to 85 °C for the second.

Compared with `Nc1nc(O)nc2nc(-c3ccco3)nn12`, `Oc1ccccc1-c1nnn[nH]1` is lower in melting point: greater than 300 °C for the first, 228 °C for the second.

First: CCCCCCOc1nc(N)c2ncn(C3CCCCC3)c2n1
Second: CCCCCCCCCCCCNc1ccc(OCC)cc1
The melting point of the first is higher: 57 to 60 °C for the first, 38 to 39 °C for the second.

First: CNc1nc(C)c(-c2nc3ccccc3c(=O)n2-c2ccccc2Cl)s1
Second: COc1cc(C(C)C)c2c(c1)S(=O)(=O)N(COc1cc(C(F)(F)F)nn1-c1ccc([N+](=O)[O-])cc1)C2=O
The melting point of the first is higher: 214 to 215 °C for the first, 185 to 187 °C for the second.

For `CC(C)NC(=O)CN1CCN(c2nnc(N)[nH]2)CC1`, the melting point was 225 to 226 °C.

Reference: a melting point compilation (Tetko et al.; mined from patent text by program, amines drawn as free bases though some values may be those of a salt)
